Results from ChEMBL document CHEMBL3745640, “Challenges in the Discovery of Indoleamine 2,3-Dioxygenase 1 (IDO1) Inhibitors” (J Med Chem, 2015).

Experiments:
[1] = molecular target: T1, Indoleamine 2,3-dioxygenase 1 (Homo sapiens, UniProt P14902); test: Inhibition of human recombinant IDO1 using L-tryptophan as substrate after 15 mins by Dixon plot analysis
[2] = molecular target: T1, Indoleamine 2,3-dioxygenase 1; test: Inhibition of 6His-tagged human recombinant IDO1 expressed in Escherichia coli EC 539 using L-tryptophan as substrate after 1 hr by plate reader analysis
[3] = Competitive inhibition of rabbit small intestine IDO1 by double reciprocal plot analysis in presence of L-tryptophan; parameters: species or system Oryctolagus cuniculus
[4] = molecular target: T1, Indoleamine 2,3-dioxygenase 1; test: Inhibition of N-terminal His-tagged human recombinant IDO1 expressed in Escherichia coli using L-tryptophan as substrate by methylene blue/ascorbate assay
[5] = molecular target: T1, Indoleamine 2,3-dioxygenase 1; test: Inhibition of IDO (unknown origin)
[6] = molecular target: T1, Indoleamine 2,3-dioxygenase 1; test: Inhibition of N-terminal His-tagged human recombinant IDO1 expressed in Escherichia coli using tryptophan as substrate by UV-visible absorption spectroscopy
[7] = molecular target: T1, Indoleamine 2,3-dioxygenase 1; test: Inhibition of IFN-gamma-stimulated IDO1 activity in human HeLa cells using L-tryptophan as substrate after 48 hrs by spectrophotometric analysis; assay type: cell-based
[8] = molecular target: T1, Indoleamine 2,3-dioxygenase 1; test: Inhibition of N-terminal His-tagged human recombinant IDO1 expressed in Escherichia coli using L-tryptophan as substrate preincubated for 10 mins followed by substrate addition measured after 30 mins by plate reader analysis
[9] = molecular target: T1, Indoleamine 2,3-dioxygenase 1; test: Inhibition of human IDO1 in HEK293 cells after 20 hrs by plate reader assay; assay type: cell-based
[10] = molecular target: T1, Indoleamine 2,3-dioxygenase 1; test: Inhibition of C-terminal 6His-tagged human IDO using L-tryptophan as substrate preincubated for 5 mins followed by substrate addition measured after 15 mins by spectrophotometric analysis
[11] = molecular target: T1, Indoleamine 2,3-dioxygenase 1; test: Inhibition of N-terminal hexa-Histidine tagged human IDO1 expressed in Escherichia coli using L-tryptophan as substrate after 30 mins by HPLC analysis
[12] = molecular target: T1, Indoleamine 2,3-dioxygenase 1; test: Inhibition of human recombinant IDO1 expressed in yeast IS20-2B using tryptophan as substrate by methylene blue/ascorbate assay
[13] = molecular target: T1, Indoleamine 2,3-dioxygenase 1; test: Inhibition of human IDO using L-tryptophan as substrate preincubated for 5 mins followed by substrate addition measured after 15 mins by spectrophotometric analysis
[14] = molecular target: T1, Indoleamine 2,3-dioxygenase 1; test: Noncompetitive inhibition of human recombinant IDO1 expressed in Escherichia coli by Michaelis-Menton nonlinear regression plot analysis in presence of L-tryptophan
[15] = molecular target: T1, Indoleamine 2,3-dioxygenase 1; test: Competitive inhibition of 6His-tagged human recombinant IDO expressed in Escherichia coli BL21DE3pLys

T1 sequence (P14902 whole entry): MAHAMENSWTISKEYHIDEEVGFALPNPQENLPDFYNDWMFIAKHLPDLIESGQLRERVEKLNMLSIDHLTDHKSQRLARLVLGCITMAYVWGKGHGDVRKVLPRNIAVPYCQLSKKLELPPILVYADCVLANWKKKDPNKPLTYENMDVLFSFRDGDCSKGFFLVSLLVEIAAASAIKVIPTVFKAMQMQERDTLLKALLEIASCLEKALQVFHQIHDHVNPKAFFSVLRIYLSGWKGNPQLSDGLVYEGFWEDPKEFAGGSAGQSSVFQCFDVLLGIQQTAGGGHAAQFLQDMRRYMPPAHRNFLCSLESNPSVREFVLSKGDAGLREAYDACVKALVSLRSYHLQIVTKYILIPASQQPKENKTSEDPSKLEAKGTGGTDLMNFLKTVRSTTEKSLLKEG

A Ki [1] of 4.3 µM was found for `N=C1C=C(N)C(=O)c2[nH]c(=O)ccc21` in this work.

An IC50 [2] of 6 µM was found for `COc1cccc2c1C(=O)C1=C(C[C@H](Cn3cc(-c4ccccc4)nn3)O[C@@H]1C)C2=O` in this work.

A Ki [3] of 230 µM was found for `N[C@@H](CC1=CCC=CC1)C(=O)O` in this work.

An IC50 [4] of 7.7 µM was found for `CC1(C)CCC[C@]2(C)[C@H]3CC=C(C=O)CC(O)[C@]3(C=O)CC[C@@H]12` (stereo partly drawn) in this work.

An IC50 [5] of 21 µM was found for `CN1C(=O)c2ccccc2-n2c(nc3ccccc3c2=O)C1[C@H](O)c1ccccc1` (stereo partly drawn) in this work.

An IC50 [6] of less than 0.2 µM was found for `Nc1oc2c(-c3ccnc(N4CCOCC4)c3)nccc2c1Nc1ccc(F)c(Cl)c1` in this work.

An IC50 [7] of less than 1 µM was found for `CCc1ccccc1Nc1cnn[nH]1` in this work.

An IC50 [8] of 0.24 µM was found for `COC1=CC(=O)c2oc(C)c(CO)c2C1=O` in this work.

An IC50 [9] of 0.003 µM was found for `CCCC(CCC)Oc1c(Br)cc(-c2ccccc2-c2nnn[nH]2)cc1NC(=O)Nc1ccccc1F` in this work.

An IC50 [9] of 0.003 µM was found for `CC(C)CN(CC(C)C)c1ccc(C(CC(=O)O)C(F)(F)F)cc1NC(=O)Nc1ccc(F)cc1F` (stereo not drawn) in this work.

An IC50 [10] of less than 1 µM was found for `O=C(Cc1ccccc1)Nc1ccc(CCOc2ccccc2-c2cnc[nH]2)cc1` in this work.

An IC50 [5] of 15 µM was found for `COc1cc(OC(=O)c2c(C)c(C)c(OC(=O)c3c(C)cc(O)c(C)c3O)c(C)c2OC)c(C)c(C)c1C(=O)O` in this work.

An IC50 [9] of 0.005 µM was found for `Cc1ccc(CC(=O)Nc2cc(-c3ccccc3-c3nnn[nH]3)ccc2N2CC3CC2CN3Cc2ccccc2)cc1` (stereo not drawn) in this work.

An IC50 [11] of less than 0.2 µM was found for `N#CC(Nc1ccc(F)c(Cl)c1)c1cc(Cl)ccc1O` (stereo not drawn) in this work.

A Ki [12] of 1.5 µM was found for `C/N=C(N)/N=C(\N)Nc1cc2ccccc2c2ccccc12` in this work.

An IC50 [13] of less than 10 µM was found for `NOCc1ccccc1` in this work.

A Ki [14] of 0.1 µM was found for `CC1(C)CCC2=C(O1)c1ccccc1C(=O)C2=O` [LAPACHONE] in this work.

A Ki [15] of 12 µM was found for `CN1C(=O)C(Cc2c[nH]c3ccccc23)NC1=S` (stereo not drawn) [NECROSTATIN] in this work.
